# Results: patent US5118705A, “Water soluble salts of purpuromycin and pharmaceutical formulations thereof” (Gruppo Lepetit S.p.A., priority 1990, dated 1992)
# Like-named read-outs stand apart in the source and are kept apart here.
# Key:
# [1] = tested on: Candida albicans ATCC 10231; test: Activity against Candida strains, two-fold dilution method; assay type: cell-based; details: for MIC: Candida albicans, ATCC10231, 20 h
# Procedure: (§1) This set of experiments included also one strain each of two other Candida species, Candida tropicalis and Candida kruzei. The M.I.C. were determined by the two-fold dilution method in buffered (0.01 M phosphate buffer, pH 7.4) yeast nitrogen base medium (Difco) supplemented with 1.5 g/liter asparagine in microtiter trays. Inocula were approximately 10^4 colony forming units/ml. Incubation was for 20 h at 30° C. Purpuromycin was dissolved in DMSO and added to the cultures as above.
# [2] = tested on: Candida albicans SKF 2270; test: as above; assay type: cell-based; details: for MIC: Candida albicans, SKF2270, 20 h
# Procedure: as §1
# [3] = comparative tests, antibacterial agents, read-out: M.I.C.
# [4] = comparative tests, antibacterial agents
Compound,"MIC [1, 3] [µg/mL]","MIC [2, 3] [µg/mL]",MIC [1] [µg/mL],MIC [2] [µg/mL],also measured
CC1=C(C(=O)O)N2C(=O)[C@@H](NC(=O)[C@H](N)c3ccccc3)[C@H]2SC1 [cefalexin],> 128,> 128,–,–,–
CO[C@@]1(NC(=O)Cc2cccs2)C(=O)N2C(C(=O)O)=C(COC(N)=O)CS[C@@H]21 [cefoxitin],> 128,> 128,–,–,–
O=C(Cc1cccs1)N[C@@H]1C(=O)N2C(C(=O)[O-])=C(C[n+]3ccccc3)CS[C@H]12 [cephaloridine],> 128,> 128,–,–,–
O=C(N[C@H](CO)[C@H](O)c1ccc([N+](=O)[O-])cc1)C(Cl)Cl [chloramphenicol],–,–,> 128,> 128,–
CC[C@H]1OC(=O)[C@H](C)[C@@H](O[C@H]2C[C@@](C)(OC)[C@@H](O)[C@H](C)O2)[C@H](C)[C@@H](O[C@@H]2O[C@H](C)C[C@H](N(C)C)[C@H]2O)[C@](C)(O)C[C@@H](C)C(=O)[C@H](C)[C@@H](O)[C@]1(C)O [erythromycin],–,–,> 128,> 128,–
CC1(C)S[C@@H]2[C@H](NC(=O)Cc3ccccc3)C(=O)N2[C@H]1C(=O)O [penicillin G],–,–,> 128,> 128,–
CN[C@@H]1[C@H](O)[C@H](NC)[C@H]2O[C@@]3(O)C(=O)C[C@@H](C)O[C@H]3O[C@@H]2[C@H]1O [spectinomycin],> 128,> 128,–,–,–
gentamicin,–,–,–,–,"M.I.C. [1, 4]: higher than 128 microgram/ml; M.I.C. [2, 4]: higher than 128 microgram/ml"
